pEC50: −log10 of the molar value. Starred links: 1 amine or outer side, 2 acyl side, 3 side chain; linkers in the order of their positions; H or OH if unused. Non-standard residues stand in square brackets, D forms with d. Residues, ends and D or L forms follow the SMILES beside them. Groups on a side chain read outwards from the residue. *: point of attachment. C18 diacid = O=C(O)CCCCCCCCCCCCCCCCC(=O)*; γGlu = O=C(O)[C@H](CCC(=O)[*:2])N[*:1]; PEG2 = NCCOCCOCCC(=O)O; Aib = CC(C)(N)C(=O)O

One may read the Tmax as the time at which the peak concentration occurs. One may read the half-life as how long it takes for the measured level to halve. Low readings indicate rapid decline, high ones slow decline. Usually pEC50 stands for the EC50 on a negative log10 scale, so that one unit is a factor of ten. Low readings indicate a large EC50, high ones a small EC50.

Series [1] in a line: Pharmacokinetic analysis after IV or SC administration in male CD1 mice. To be noted: for Tmax / half-life: iv. The protocol:
Pharmacokinetic parameters of the drugs were calculated by methods of model dependence (for data obtained from IV) and model independence (data obtained from SC).

Series [2] relates to male C57B1/6J mice. The experiment in a line: Oral glucose tolerance test in male C57B1/6J mice. Format: in vivo. As to conditions: 250 μg/kg; for AUC of blood glucose in all four OGTT curve periods (0-480 min) compared with carrier (PBS): P<0.05; for effect on oral glucose tolerance: male C57B1/6J mice. How it is done: 12-16 week-old male C57B1/6J mice (Nanjing University model animal research center) were randomly divided into groups 8 in each group, according to similar blood glucose (assessed by the blood samples obtained from the tail tip). After fasting (for 6 hours), the animals were administrated, and about 4 hours later, initial blood samples (fasting blood glucose level) were taken. Subsequently, the animals were administrated with an oral dose of glucose, and then put back into their cages (t=0). Blood glucose was measured at t=15 minutes, t=30 minutes, t=60 minutes, t=90 minutes and t=120 minutes. And then the animals were administrated with an oral dose of glucose again, and blood glucose was tracked until 8 hours.

Series [3] has as its system DIO mice. The experiment in a line: Body weight reduction in DIO (obese) mice. Format: in vivo. To be noted: 250 μg/kg SC daily, day 11 to day 30, DIO mice. The source says:
Forty 25-week-old DIO mice (Nanjing University model animal research center) were randomly divided into five groups (compound 4, 5, 6, 7, and normal saline group), 8 in each group, having no difference in the basis weight of each group.

The target of series [4] is T1, human GLP-1R (Homo sapiens, UniProt P43220).
T1 construct: expressed in transfected cells
As to the kind of experiment: In vitro activity on GLP-1R, CRE-luciferase HEK-293 cells. It counts as cell-based. As to conditions: for GLP-1R/GCGR: ratio of EC50 GLP-1R to EC50 GCGR. How it is done: 5000 of HEK-293 cells, which are used in CRE-luciferase system and express human GCGR or GLP-1R stably, were inoculated into 384 well plates according to […] DMEM/10% FBS media/well. […] After incubation, […] of luciferase reagent was added directly to each plate and mixed gently for 2 minutes. The plates were placed into an Elmer Perkin plate reader for reading. Concentration curve of the compound was made by drawing software Prism 5, and the EC50 value was calculated.

T1 sequence (P43220 24-463): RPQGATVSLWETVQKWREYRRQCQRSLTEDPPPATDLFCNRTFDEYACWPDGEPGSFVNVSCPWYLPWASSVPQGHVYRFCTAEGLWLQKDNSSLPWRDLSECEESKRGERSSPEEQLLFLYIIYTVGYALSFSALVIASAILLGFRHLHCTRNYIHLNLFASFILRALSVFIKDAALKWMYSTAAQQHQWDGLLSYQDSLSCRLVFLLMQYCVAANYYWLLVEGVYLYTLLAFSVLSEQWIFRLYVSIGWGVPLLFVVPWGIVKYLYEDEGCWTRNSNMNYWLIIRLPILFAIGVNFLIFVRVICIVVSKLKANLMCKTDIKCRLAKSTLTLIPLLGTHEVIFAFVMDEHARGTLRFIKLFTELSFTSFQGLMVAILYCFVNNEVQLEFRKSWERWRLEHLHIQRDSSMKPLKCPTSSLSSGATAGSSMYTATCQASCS

`CCCCCCCCCCCCCCCC(=O)N[C@@H](CCC(=O)NCCOCCOCCC(=O)NCCOCCOCCC(=O)NCCCC[C@H](NC(=O)[C@H](CC(=O)O)NC(=O)[C@H](CO)NC(=O)[C@@H](NC(=O)[C@H](Cc1ccccc1)NC(=O)[C@@H](NC(=O)CNC(=O)[C@H](CCC(N)=O)NC(=O)[C@@H](CO)NC(=O)[C@@H](N)Cc1c[nH]cn1)[C@@H](C)O)[C@@H](C)O)C(=O)N[C@@H](CO)C(=O)N[C@@H](CCCCN)C(=O)N[C@@H](Cc1ccc(O)cc1)C(=O)N[C@@H](CC(C)C)C(=O)N[C@@H](CC(=O)O)C(=O)NC(C)(C)C(=O)N[C@@H](CCCNC(=N)N)C(=O)N[C@@H](CCCNC(=N)N)C(=O)N[C@@H](C)C(=O)N[C@@H](CCC(N)=O)C(=O)N[C@@H](CC(=O)O)C(=O)N[C@@H](Cc1ccccc1)C(=O)N[C@H](C(=O)N[C@@H](CCC(N)=O)C(=O)N[C@@H](Cc1c[nH]c2ccccc12)C(=O)N[C@@H](CC(C)C)C(=O)N[C@@H](CCSC)C(=O)N[C@@H](CC(N)=O)C(=O)N[C@H](C(=O)NCC(=O)NCC(=O)N1CCC[C@H]1C(=O)N[C@@H](CO)C(=O)N[C@@H](CO)C(=O)NCC(=O)N[C@@H](C)C(=O)N1CCC[C@H]1C(=O)N1CCC[C@H]1C(=O)N1CCC[C@H]1C(=O)N[C@@H](CO)C(N)=O)[C@@H](C)O)C(C)C)C(=O)O` [Compound 7]: in series [1] (mouse, in vivo), the clinical adverse effect result was “no clinical adverse effect”, the Tmax was approximately 12 h and the half-life is 240 to 360 min. Moreover, the peak time result in series [1] (mouse, in vivo, sc) is “more than 12 hours”. In addition, in series [2], the “AUC of blood glucose in all four OGTT curve periods (0-480 min) compared with carrier (PBS)” value (“AUC … compared with carrier (PBS)” below) is reported as “significantly decreased” and the “effect on oral glucose tolerance” value is reported as “significantly reduced the oral glucose tolerance”. The weight loss result in series [3] was “about 20%”. The “body weight compared with normal saline group” value in series [3] (P<0.05) is “significantly lower”.

As for `CSCC[C@H](NC(=O)[C@H](CC(C)C)NC(=O)[C@H](Cc1c[nH]c2ccccc12)NC(=O)[C@H](CCC(N)=O)NC(=O)[C@@H](NC(=O)[C@H](Cc1ccccc1)NC(=O)[C@H](CC(=O)O)NC(=O)[C@H](CCC(N)=O)NC(=O)[C@H](C)NC(=O)[C@H](CCCNC(=N)N)NC(=O)[C@H](CCCNC(=N)N)NC(=O)C(C)(C)NC(=O)[C@H](CC(=O)O)NC(=O)[C@H](CC(C)C)NC(=O)[C@H](CCCCN)NC(=O)[C@H](CCCCNC(=O)CCOCCOCCNC(=O)CCOCCOCCNC(=O)CCCCCCCCCCCCCCCCC(=O)O)NC(=O)[C@H](CO)NC(=O)[C@H](Cc1ccc(O)cc1)NC(=O)[C@H](CC(=O)O)NC(=O)[C@H](CO)NC(=O)[C@@H](NC(=O)[C@H](Cc1ccccc1)NC(=O)[C@@H](NC(=O)CNC(=O)[C@H](CCC(N)=O)NC(=O)[C@@H](CO)NC(=O)[C@@H](N)Cc1c[nH]cn1)[C@@H](C)O)[C@@H](C)O)C(C)C)C(=O)N[C@@H](CC(N)=O)C(=O)N[C@H](C(=O)NCC(=O)NCC(=O)N1CCC[C@H]1C(=O)N[C@@H](CO)C(=O)N[C@@H](CO)C(=O)NCC(=O)N[C@@H](C)C(=O)N1CCC[C@H]1C(=O)N1CCC[C@H]1C(=O)N1CCC[C@H]1C(=O)N[C@@H](CO)C(N)=O)[C@@H](C)O` [Compound 16], in series [4], the GLP-1R/GCGR turned out to be 3.

For `CC(C)C[C@H](NC(=O)[C@H](CC(C)C)NC(=O)[C@H](Cc1c[nH]c2ccccc12)NC(=O)[C@H](CCC(N)=O)NC(=O)[C@@H](NC(=O)[C@H](Cc1ccccc1)NC(=O)[C@H](CC(=O)O)NC(=O)[C@H](CCC(N)=O)NC(=O)[C@H](C)NC(=O)[C@H](CCCNC(=N)N)NC(=O)[C@H](CCCNC(=N)N)NC(=O)[C@H](CCC(=O)O)NC(=O)[C@H](CC(=O)O)NC(=O)[C@H](CC(C)C)NC(=O)[C@H](Cc1ccc(O)cc1)NC(=O)[C@H](CCCCN)NC(=O)[C@H](CO)NC(=O)[C@H](CCCCNC(=O)CCOCCOCCNC(=O)CCOCCOCCNC(=O)CC[C@H](NC(=O)CCCCCCCCCCCCCCCCC(=O)O)C(=O)O)NC(=O)[C@H](CC(=O)O)NC(=O)[C@H](CO)NC(=O)[C@@H](NC(=O)[C@H](Cc1ccccc1)NC(=O)[C@@H](NC(=O)CNC(=O)[C@H](CCC(N)=O)NC(=O)C(C)(C)NC(=O)[C@@H](N)Cc1c[nH]cn1)[C@@H](C)O)[C@@H](C)O)C(C)C)C(=O)N[C@@H](CC(=O)O)C(=O)NCC(=O)NCC(=O)N1CCC[C@H]1C(=O)N[C@@H](CO)C(=O)N[C@@H](CO)C(=O)NCC(=O)N[C@@H](C)C(=O)N1CCC[C@H]1C(=O)N1CCC[C@H]1C(=O)N1CCC[C@H]1C(=O)N[C@@H](CO)C(N)=O` [Compound 20] (H-H[Aib]QGTFTSDK([PEG2-PEG2-γGlu-C18 diacid])SKYLDERRAQDFVQWLLDGGPSSGAPPPS-NH2), the GLP-1R/GCGR in series [4] was determined as 0.18. Also, in series [1] (IV or SC route, male CD1 mice), the clinical adverse effect entry is reported as “no clinical adverse effect”. Also, in series [1] (mouse, in vivo), the Tmax was approximately 12 h and the half-life was 240 to 360 min. In series [2], the “AUC … compared with carrier (PBS)” value is on record as “significantly decreased” and the “effect on oral glucose tolerance” value was “significantly reduced the oral glucose tolerance”.

Regarding `CCCCCCCCCCCCCCCC(=O)N[C@@H](CCC(=O)NCCOCCOCCC(=O)NCCOCCOCCC(=O)NCCCC[C@H](NC(=O)[C@H](CC(=O)O)NC(=O)[C@H](CO)NC(=O)[C@@H](NC(=O)[C@H](Cc1ccccc1)NC(=O)[C@@H](NC(=O)CNC(=O)[C@H](CCC(N)=O)NC(=O)C(C)(C)NC(=O)[C@@H](N)Cc1c[nH]cn1)[C@@H](C)O)[C@@H](C)O)C(=O)N[C@@H](CO)C(=O)N[C@@H](CCCCN)C(=O)N[C@@H](Cc1ccc(O)cc1)C(=O)N[C@@H](CC(C)C)C(=O)N[C@@H](CC(=O)O)C(=O)NC(C)(C)C(=O)N[C@@H](CCCNC(=N)N)C(=O)N[C@@H](CCCNC(=N)N)C(=O)N[C@@H](C)C(=O)N[C@@H](CCC(N)=O)C(=O)N[C@@H](CC(=O)O)C(=O)N[C@@H](Cc1ccccc1)C(=O)N[C@H](C(=O)N[C@@H](CCC(N)=O)C(=O)N[C@@H](Cc1c[nH]c2ccccc12)C(=O)N[C@@H](CC(C)C)C(=O)N[C@@H](CC(C)C)C(=O)N[C@@H](CC(=O)O)C(=O)NCC(=O)NCC(=O)N1CCC[C@H]1C(=O)N[C@@H](CO)C(=O)N[C@@H](CO)C(=O)NCC(=O)N[C@@H](C)C(=O)N1CCC[C@H]1C(=O)N1CCC[C@H]1C(=O)N1CCC[C@H]1C(=O)N[C@@H](CO)C(N)=O)C(C)C)C(=O)O` [Compound 21], the GLP-1R/GCGR in series [4] was found to be 0.23. Moreover, the clinical adverse effect entry in series [1] (IV or SC route, male CD1 mice) is recorded as “no clinical adverse effect”. In series [1] (mouse, in vivo), the Tmax is approximately 12 h and the half-life was 240 to 360 min. Further, in series [2], the “AUC … compared with carrier (PBS)” value is “significantly decreased” and the “effect on oral glucose tolerance” value is recorded as “significantly reduced the oral glucose tolerance”.

In the case of `CC(C)C[C@H](NC(=O)[C@H](CC(C)C)NC(=O)[C@H](Cc1c[nH]c2ccccc12)NC(=O)[C@H](CCC(N)=O)NC(=O)[C@@H](NC(=O)[C@H](Cc1ccccc1)NC(=O)[C@H](CC(=O)O)NC(=O)[C@H](CCC(N)=O)NC(=O)[C@H](C)NC(=O)[C@H](CCCNC(=N)N)NC(=O)[C@H](CCCNC(=N)N)NC(=O)C(C)(C)NC(=O)[C@H](CC(=O)O)NC(=O)[C@H](CC(C)C)NC(=O)[C@H](Cc1ccc(O)cc1)NC(=O)[C@H](CCCCN)NC(=O)[C@H](CO)NC(=O)[C@H](CCCCNC(=O)CCOCCOCCNC(=O)CCOCCOCCNC(=O)CC[C@H](NC(=O)CCCCCCCCCCCCCCCCC(=O)O)C(=O)O)NC(=O)[C@H](CC(=O)O)NC(=O)[C@H](CO)NC(=O)[C@@H](NC(=O)[C@H](Cc1ccccc1)NC(=O)[C@@H](NC(=O)CNC(=O)[C@H](CCC(N)=O)NC(=O)C(C)(C)NC(=O)[C@@H](N)Cc1c[nH]cn1)[C@@H](C)O)[C@@H](C)O)C(C)C)C(=O)N[C@@H](CC(=O)O)C(=O)NCC(=O)NCC(=O)N1CCC[C@H]1C(=O)N[C@@H](CO)C(=O)N[C@@H](CO)C(=O)NCC(=O)N[C@@H](C)C(=O)N1CCC[C@H]1C(=O)N1CCC[C@H]1C(=O)N1CCC[C@H]1C(=O)N[C@@H](CO)C(N)=O` [Compound 22] (H-H[Aib]QGTFTSDK([PEG2-PEG2-γGlu-C18 diacid])SKYLD[Aib]RRAQDFVQWLLDGGPSSGAPPPS-NH2), in series [4], the pEC50 was 10.22 and the GLP-1R/GCGR is reported as 0.19. Moreover, the clinical adverse effect entry in series [1] (IV or SC route, male CD1 mice) was “no clinical adverse effect”. In series [1] (mouse, in vivo), the Tmax is approximately 12 h and the half-life is 240 to 360 min. Further, in series [2], the “AUC … compared with carrier (PBS)” value is “significantly decreased” and the “effect on oral glucose tolerance” value is listed as “significantly reduced the oral glucose tolerance”.

As to “His-Aib-Gln-Gly-Thr-Phe-Thr-Ser-Asp-Lys(PEG2-PEG2-Glu-CO(CH2)14CH3)-Ser-Lys-Tyr-Leu-Asp-Glu-Arg-Arg-Ala-Gln-Asp-Phe-Val-Gln-Trp-Leu-Leu-Asp-Gly-Gly-Pro-Ser-Ser-Gly-Ala-Pro-Pro-Pro-Ser-NH2 [Compound 19]”, the GLP-1R/GCGR in series [4] was 0.25. Further, in series [2], the “AUC … compared with carrier (PBS)” value was “significantly decreased” and the “effect on oral glucose tolerance” value is listed as “significantly reduced the oral glucose tolerance”.

(Values after patent US10479819B2 (priority 2014, dated 2019).)
